Experimental data taken from patent US10731216B2, “Methods and compositions for biomarkers of depression and pharmacoresponse” (priority 2014, dated 2020).
“Also recorded” adds a separate entry of the source. Like-named read-outs stand apart in the source and are kept apart here. Each block holds one molecule with its values, some of them ahead of it.

What was measured:
[1] = system: C57Bl/6 mice; assay: Forced swim test (FST), depression-like behavior; assay type: in vivo, mouse; settings: for immobility time in FST after FLX treatment: 12 mo, FLX 80 mg/L in drinking water for 21 days
Method: […]; Sigma-Aldrich, Sweden) from gestational day (GD) 14 until delivery. The delivery day was recorded as postnatal day (PND) 0. The litters were culled to 4 pups/litter at PND3. The pups were weighed at PND3, 7, 14, and 21. At weaning (PND21), the mice were implanted subcutaneously with sterile radio-frequency identification (RFID) tags (Trovan Unique 100A, Trovan Ltd., UK) under brief isoflurane anesthesia. The transponders allowed unambiguous identification of animals and were also used for monitoring the activity in homecage environment. After implantation, the pups were redistributed to new cages so that each cage would house a maximum of 5 mice originating from different litters, and the distribution was maintained throughout the study. The mice were kept in an animal facility under 12 h:12 h light-dark (LD) cycle (light intensity 50 lx; light on at 6 a.m.) at constant temperature (22±1° C.) and humidity (50%±5%). The circadian zeitgeber (“time-giver”) time (ZT) 0 corresponds to the subjective sunrise, i.e., the onset of the light phase.
Adult male mice aged 7 weeks, 3 mo, or 12 mo were tested for depression-like behavior in the forced swim tests (FST). Briefly, the animals were individually placed in glass cylinders (24 cm height, 12 cm diameter) filled with water (23.5° C.) to a depth of 16 cm. The animals were exposed to a 15 min pretest followed by a 6 min test 24 h later. Test sessions were videotaped and analysed offline by one investigator who was blind to the treatment and exposure conditions. Immobility was defined as passive floating for at least 2 s. After documenting depression-like behavior at the age of 12 mo, the animals were treated with fluoxetine (FLX; a selective serotonin re-uptake inhibitor antidepressant) dissolved in drinking water (80 mg/L) for 21 days before repeating the test. In addition to FST, depression-like behavior was tested in a tail-suspension test (TST), as described below.

[2] = system: C57Bl/6 mice; assay: Tail-suspension test (TST); assay type: in vivo, mouse; settings: prenatal DEX exposure; mice aged 12 mo
Method: The delivery day was recorded as postnatal day (PND) 0. The litters were culled to 4 pups/litter at PND3. The pups were weighed at PND3, 7, 14, and 21. At weaning (PND21), the mice were implanted subcutaneously with sterile radio-frequency identification (RFID) tags (Trovan Unique 100A, Trovan Ltd., UK) under brief isoflurane anesthesia. The transponders allowed unambiguous identification of animals and were also used for monitoring the activity in homecage environment. After implantation, the pups were redistributed to new cages so that each cage would house a maximum of 5 mice originating from different litters, and the distribution was maintained throughout the study. The mice were kept in an animal facility under 12 h:12 h light-dark (LD) cycle (light intensity 50 lx; light on at 6 a.m.) at constant temperature (22±1° C.) and humidity (50%±5%). The circadian zeitgeber (“time-giver”) time (ZT) 0 corresponds to the subjective sunrise, i.e., the onset of the light phase.
For TST, the mice were allowed to acclimatize in the testing room for at least 30 min before the experiment. The mice were suspended by the tail 15 cm above the table (using adhesive tape placed approx. 2 cm from the base of the tail). Soft padding was provided in order to prevent injuries in case the animal escaped or fell down because of tape failure. After 6 min, the animal were released and placed in the homecage. […]

[3] = Corticosterone metabolites in feces; assay type: in vivo, mouse; settings: prenatal DEX exposure, 12 mo
Method: The circadian pattern of GC secretion at 12 mo was investigated using a minimally invasive approach. To this end, spontaneous fecal boli were collected between ZT1-2 and ZT12-14 (i.e., immediately after the transition between the light and dark phases of the LD cycle). The feces were collected in sterile Eppendorf tubes and stored at −80° C. until further processing. Samples from each mouse were collected on two occasions (7 day interval between samplings) and the measurements for each mouse were averaged before analysing the differences across the LD cycle. The concentration of corticosterone metabolites in dry fecal extracts was measured by enzyme immunoassay according to manufacturer's instructions (DetectX™, Arbor Assays, Ann Arbor, […]., USA).

[4] = system: Bmal1; assay: Bmal1 expression in primary fibroblast cultures from control and DEX-exposed mice (qPCR); assay type: cell-based, mouse; settings: fibroblasts from prenatally DEX-exposed mice aged 6 mo; synchronised with 1 μM DEX
Method: (§1) Tissue samples (˜0.25 cm^2) were harvested from the ear of adult (6 mo) control and DEX-exposed mice under terminal anesthesia. The tissue was rinsed in Hank's Balanced Salt Solution (HBSS) (Life Technologies Europe BV, Stockholm, Sweden), then minced with sterile razor blade into Collagenase (Type XI-S) (Sigma-Aldrich, Sweden) (30 min at 37° C.). After digestion, 3 ml of DMEM Medium (Life Technologies) supplemented with 10% Fetal Bovine Serum and 1% Penicillin/Streptomycin (Life Technologies) was added to a 6 cm plate and the samples were incubated at 37° C. for at least 6 days. After passaging (0.05% Trypsin-EDTA; Invitrogen), the cells were plated in 12 multi-well plates in MEF medium (DMEM Medium+10% FBS+1% pen/strep) at a density of at least 50 k/cm^2. […] The cells were then collected between 6 and 36 h after synchronisation. The relative expression of Bmal1 was assessed by qPCR with Gapdh as housekeeping gene as described in Example 1 (Table 2: SEQ ID NO 5 and 6, and 1 5 and 2, respectively).

[5] = system: Per2 promoter; assay: Luciferase reporter assay in Per2::Luc primary mouse fibroblasts after DEX synchronisation; assay type: cell-based; settings: 1 μM DEX single pulse
Method: The generation of knock-in mice expressing firefly luciferase under the control of Per2 promoter (Per2::Luc) has been described previously (Yoo et al. 2004).
as §1, with “samples (about 0.25” for “samples (˜0.25”, “and Dex-exposed” for “and DEX-exposed”, “The number of photons emitted by each culture dish was counted over 1 minute every 10 min (time resolution: 6 data points/h). The time series” for “The cells”, “were further analyzed by means” for “were then collected between 6 and 36 h after synchronisation. The relative expression”, “of cosinor analysis” for “of Bmal1 was assessed by qPCR with Gapdh as housekeeping gene”, “Example 4.” for “Example 1 (Table 2: SEQ ID NO 5 and 6, and 1 5 and 2, respectively).”

[6] = system: BMAL1, PER1 and PER2; assay: Clock gene mRNA expression in primary human fibroblasts after DEX synchronisation (qPCR); assay type: cell-based; settings: 1 μM DEX; fibroblasts from healthy subjects; 6-36 h after synchronisation
Method: A skin biopsy (about 5×2 mm) was collected from the internal aspect of the arm under sterile conditions after local anesthesia using EMLA patches (AstraZeneca, Sodertalje, Sweden). The wound was then covered with a sterile patch, and a small scar is formed typically within […]. The tissue sample was quickly transferred to ice-cold HBSS (Life Technologies Europe BV, Stockholm, Sweden) and minced with a sterile razor blade into Collagenase (Type XI-S) (Sigma-Aldrich, Sweden) (30 min at 37° C.). After digestion, 3 ml of DMEM Medium (Life Technologies) supplemented with 10 mM Hepes buffer, sodium pyruvate, non-essential amino acid mixture, glutamax, 20% Fetal Bovine Serum, and 1% Penicillin/Streptomycin (all supplements were from Life Technologies) was added to a 6 cm plate and the samples were incubated at 37° C. until the fibroblasts reached confluence (typically 3-4 weeks). The confluent fibroblast cultures were passaged (0.05% Trypsin-EDTA; Invitrogen) then plated in 12 multi-well plates at a density of at least 50 k/cm^2 in the same medium as used above. […] The cells were collected between 6 and 36 h after synchronisation. The relative mRNA expression of BMAL1, PER1 and PER2 (Table 2: SEQ ID NO 19 and 20) was assessed by qPCR with HP RT (Table 2: SEQ ID NO 13 and 14) as housekeeping gene. The qPCR procedure is described in Example 1.

[7] = system: C57Bl/6 mice; assay: Homecage spontaneous activity (cosinor, periodogram, detrended fluctuation analysis)
Method: The spontaneous activity of mice aged 1, 3, 5, and 12 mo (N=7-8/group) was recorded using the TraffiCage™ system (NewBehavior, Zurich, Switzerland). Briefly, the system consists of an array of radio frequency (RF) antennas placed under the cage with group-housed, freely moving mice. The antennas read the RFID tags and provide an approximate location of each animal with a time resolution of 20 ms. The time interval during which an animal is detected constantly by the same antenna is defined as a “visit.” When an animal changes location enough to be detected by another antenna, a new visit is recorded. Each visit is described by the start time and duration. For long recordings, the number of visits is virtually equal to the number of transitions, and can be used as activity count. The time series of visits are exported as ASCII files and analysed using custom routines developed in Matlab™ R2013b (The MathWorks™, Natick, Md., USA).
The mice were housed in a climate-controlled, isolated room for a period of 6 to 7 weeks, with minimal interactions with human experimenters (except for changing the cage and to replenish food and water, which occurred at random times throughout the experiment). The synchronisation of activity monitoring with the LD cycle was ensured by using a remote control device (TellStick™, Telldus Technologies AB, Lund, Sweden) operated by the computer running TraffiCage™ control software. To minimize the effects of novelty and possible interference from circadian rhythm entrainment, the baseline measurements were derived based on 3 LD cycles after an acclimation period of at least 3 LD cycles.
The analysis of circadian rhythmicity consisted of rhythmometry by means of cosinor analysis. […] We next analysed spontaneous activity by detrended fluctuation analysis (DFA). The method is based on linear regression analysis of the residual variance of the time series against the time scale used for detrending on double-logarithmic plots. The slope of a linear regression in double-logarithmic plot translates into a scaling exponent, and describes the long-term autocorrelation patterns embedded in the time series.

[8] = system: mice; assay: MeHg model of developmental neurotoxicity, depression-like behavior; assay type: in vivo, mouse
[9] = system: hippocampal dentate gyrus; settings: chronic FLX; for effect of FLX treatment on neurogenesis: 12 mo

- immobility time in FST vs controls ([1]; prenatal DEX 0.05 mg/kg/day s.c. from GD14 until delivery, male offspring at 12 mo): increased
- depression-like phenotype in tail suspension test [2]: reconfirmed
- levels of corticosterone metabolites in the feces vs controls [3]: lower levels
- oscillations in Bmal1 expression vs control mice [4]: attenuated oscillations
- scaling coefficient of spontaneous activity (detrended fluctuation analysis) ([7]; one DEX-exposed mouse (FIG. 6D), control mouse 0.82): 0.88
- amplitude of circadian rhythm (cosinor), baseline vs forced synchronisation ([7]; prenatal DEX exposure): no significant difference
- circadian period of spontaneous activity ([7]; prenatal DEX exposure, 12 months old, constant steady entrainment): shorter
- amplitude of circadian rhythm (cosinor) at baseline vs controls ([7]; prenatal DEX exposure, LD cycle baseline): larger
- scaling exponent, free-running vs circadian entrainment conditions ([7]; prenatal DEX exposure, all ages investigated): significant fluctuations
- acrophase, baseline vs forced synchronisation ([7]; prenatal DEX exposure, mice aged 3 mo and older): did not vary
SMILES: C[C@@H]1C[C@H]2[C@@H]3CCC4=CC(=O)C=C[C@]4(C)[C@@]3(F)[C@@H](O)C[C@]2(C)[C@@]1(O)C(=O)CO [DEX, dexamethasone]
- circadian fluctuations in GC secretion ([3]; ZT1-2 vs ZT12-14): did not show significant circadian fluctuations
- time over which oscillations can be detected after initial DEX synchronisation [5]: ≤ 10 days
- period of oscillations in clock gene mRNA expression after DEX synchronisation [6]: about 24 h

SMILES: CNCCC(Oc1ccc(C(F)(F)F)cc1)c1ccccc1 (stereo not drawn) [FLX, fluoxetine]
- reversal of depression-like behavior by antidepressant treatment ([1]; DEX model, middle-aged mice (12 months)): not reversed
- immobility time in FST after FLX treatment ([1]; DEX-exposed mice): not altered
- immobility time in FST after FLX treatment ([1]; control mice): decreases
- reversal of depression-like behavior by antidepressant treatment ([8]; young adults (2-3 months)): reversed
- effect of FLX treatment on neurogenesis ([9]; DEX-exposed mice): did not have any significant effect; also recorded: has no effect
- effect of FLX treatment on neurogenesis ([9]; controls): reduces
- number of DCX+ cells after FLX ([9]; middle-aged controls): decreased

SMILES: [CH3][Hg][Cl] [MeHg, methylmercury]
- depression-like behavior after developmental exposure [8]: detectable in young adults
